Data from patent US20090186868A1, “Taxane Compound Having Azetidine Ring Structure” (Daiichi Sankyo Company Limited, priority 2005, published 2009).
Converted amounts (≈) assume the structure as drawn. Where two headings read alike, the source gives them in different places.

Key:
[1] = system: HCT-15 (P glycoprotein (P-gp) expressing human colon cancer cell line); assay: Anti-cell activity (MTT) against human tumor cell line HCT-15; format: cell-based; settings: 72 h, HCT-15 (P-gp expressing), cultured three days, read-out: HCT-15 (GI50 value, ng/mL)
Protocol: (§1) Three types of human tumor cell lines (all of the cells were obtained from American Type Culture Collection) were seeded on 96-well microplates as follows.
(§2) NCI-H460 (human lung cancer cell line): 5.0×10^2 cells/190 μL/well HCT-15 (P glycoprotein (P-gp) expressing human colon cancer cell line, J. Natl. Cancer Inst., 2001, 93:1234-1245): 1.0×10^3 cells/190 μL/well HCT116 (human colon cancer cell line): 1.0×10^3 cells/190 μL/well On the next day, each test compound was dissolved in 100% dimethyl sulfoxide (DMSO) at a concentration of 10 mg/mL. This solution was diluted with 0.01% Cremophor EL-PBS(−) (Cremophor EL: Sigma Chemical Co., St. Louis, Mo., USA, PBS: Invitrogen Corp., Carlsbad, Calif., USA), and 10 μL of the diluted solution was added to each well (final concentration: 100 to 0.000381 ng/mL). The cells were cultured for three days, and then […] of a 5 mg/mL solution of 3-(4,5-dimethylthiazol-2-yl)-2,5-diphenyl-2H-tetrazolium bromide (MTT, Sigma Chemical Co.) was added to each well. The cells were further cultured for 4 hours, and then the medium was removed by centrifugation. By adding 150 μL of DMSO to each well, the produced formazan product was dissolved. The absorbance of the solution was measured at 540 nm. The drug concentration suppressing cell proliferation of the drug addition group to 50% of the cell proliferation of the drug free group (GI50 value, ng/mL) was calculated, and used as an index of anti-cell activity.

[2] = system: HCT116 (human colon cancer cell line); assay: Anti-cell activity (MTT) against human tumor cell line HCT116; format: cell-based; settings: HCT-116, 72 h, HCT116, cultured three days, read-out: HCT116 (GI50 value, ng/mL)
Protocol: as §1, §2

[3] = system: NCI-H460 (human lung cancer cell line); assay: Anti-cell activity (MTT) against human tumor cell line NCI-H460; format: cell-based; settings: 72 h, NCI-H460, cultured three days, read-out: NCI-H460 (GI50 value, ng/mL)
Protocol: as §1, §2

[4] = Solubility in first and second solution for disintegration test (Japanese Pharmacopoeia); format: physicochemical; settings: for solubility: thermodynamic from solid
Protocol: Solubility of each compound was determined in the first solution for disintegration test according to Japanese Pharmacopoeia (henceforth referred to as the first solution, solution obtained by adding 7 mL of hydrochloric acid and water to 2.00 g of sodium chloride to dissolve sodium chloride and fill up the solution to 1000 mL, pH 1.2) and the second solution for disintegration test according to Japanese Pharmacopoeia (henceforth referred to as the second solution, solution obtained by adding 118 mL of 0.2 mol/L solution of sodium hydroxide to 6.80 g of potassium dihydrogenphosphate, adding water to the mixture to dissolve potassium dihydrogenphosphate and filling up the solution to 1000 mL, pH 6.8).
Each test compound was dissolved in 100% dimethyl sulfoxide (DMSO) at a concentration of 10 mM, and 50 μL of the solution was lyophilized. The lyophilized test compound was added with 250 μL of the first solution or second solution, and the mixture was stored at room temperature for 12 hours or longer under light shielding, and filtered (0.7 μm). The filtrate was taken in a volume of 90 μL, and added with 50% DMSO (90 μL) to obtain a two-fold diluted solubility sample. The two-fold dilution solubility sample was taken in a volume of 20 μL, and added with 50% DMSO (180 μL) to obtain a […] diluted solubility sample. Solubility of each test sample was determined by quantifying the test compound in the resulting diluted solubility test samples using high-performance liquid chromatography.

B16 melanoma BL6 = assay: Antitumor effect in mice subcutaneously transplanted with B16 melanoma BL6; format: in vivo, Mice (C57BL/6); settings: for Therapeutic index: MTD/MED; for Effective dose range: range from MED to MTD, antitumor effect of 58% or more considered effective
Description: (§3) Mice (C57BL/6, Charles River Japan) were subcutaneously transplanted with B16 melanoma BL6 (Cancer Res., Poste, G., Fidler, I. J. et al., 1980, 40:1636; Bioorg. Med. Chem. Lett., Takeda, Y. et al., 2003, 13:185-190), or M5076 (obtained from Japanese Foundation for Cancer Research), which is a histiocytoma expressing P-gp. Four days after the transplantation in the case of B16 melanoma BL6, or 8 to 10 days after the transplantation in the case of M5076, each test compound suspended in a 0.5% aqueous solution of carboxymethylcellulose sodium, or dissolved in EtOH:Tween 80:5% glucose=5:5:90 (v/v %) was orally (po) or intravenously (iv) administered to the mice. Ten days after the administration in the case of B16 melanoma BL6, or 8 to 10 days after the administration in the case of M5076, the mice were dissected, and tumor weights were measured. The antitumor effect was calculated in accordance with the following equation.
(§4) [1−(Average tumor weight of compound administration group/average tumor weight of solvent administration group)]×100
(§5) An antitumor effect of 58% or more was considered effective (Int. J. Cancer, 1989, 43:637-44), and the maximum tolerance dose (MTD, maximum dose not causing death, mg/kg) and minimum effective dose (MED, mg/kg) showing effectiveness were obtained, respectively. The therapeutic index was calculated in accordance with the equation: MTD/MED.
(§6) ND means that the test was not performed. The effective dose range means the range of from MED to MTD.

[5] = system: M5076 (histiocytoma expressing P-gp); assay: Antitumor effect in mice subcutaneously transplanted with M5076; format: in vivo, Mice (C57BL/6); settings: M5076, iv; for Therapeutic index: MTD/MED; for Effective dose range: range from MED to MTD, antitumor effect of 58% or more considered effective
Description: as §3, §4, §5, §6

[6] = aqueous buffer, second solution for disintegration test, pH 6.8, room temperature, 12 hours or longer, read-out: Solubility (μg/mL) pH 6.8
[7] = simulated gastric fluid, first solution for disintegration test, pH 1.2, room temperature, 12 hours or longer, read-out: Solubility (μg/mL) pH 1.2
[8] = first solution for disintegration test, pH 1.2, room temperature, 12 hours or longer
[9] = second solution for disintegration test, pH 6.8, room temperature, 12 hours or longer

For `CC(=O)O[C@@]12CO[C@@H]1CC[C@@]1(C)[C@@H]3O[C@H](CN4CCC4)O[C@@H]3C3=C(C)[C@@H](OC(=O)[C@H](O)[C@@H](NC(=O)OC(C)(C)C)c4ccccn4)C[C@@](O)([C@@H](OC(=O)c4ccccc4)[C@@H]12)C3(C)C` [Example 1, (1S,2S,3R,4S,5R,8R,9S,10R,13S)-4-(Acetoxy)-9,10-[(1S)-2-(azetidino)ethylidenedioxy]-2-(benzoyloxy)-5,20-epoxy-1-hydroxytax-11-en-13-yl (2R,3S)-3-(tert-butoxycarbonylamino)-2-hydroxy-3-(2-pyridyl)propionate], the GI50 [1] was 1.14 ng/mL (≈ 0.0013 µM), the GI50 [2] was 0.244 ng/mL (≈ 0.000279 µM) and the GI50 [3] was 0.19 ng/mL (≈ 0.000217 µM). It also gave a solubility [4, 6] of 170 µg/mL (≈ 194 µM), a solubility [4, 7] of 1200 µg/mL (≈ 1370 µM) and a Therapeutic index (B16 melanoma BL6; B16 Melanoma BL6, po) of 2.9.
Work on `CC(=O)O[C@@]12CO[C@@H]1CC[C@@]1(C)[C@@H]3O[C@H](CN4CC(C)(O)C4)O[C@@H]3C3=C(C)[C@@H](OC(=O)[C@H](O)[C@@H](NC(=O)OC(C)(C)C)c4ccccn4)C[C@@](O)([C@@H](OC(=O)c4ccccc4)[C@@H]12)C3(C)C` [Example 11, (1S,2S,3R,4S,5R,8R,9S,10R,13S)-4-(Acetoxy)-2-(benzoyloxy)-5,20-epoxy-1-hydroxy-9,10-[(1S)-2-(3-hydroxy-3-methylazetidino)ethylidenedioxy]tax-11-en-13-yl (2R,3S)-3-(tert-butoxycarbonylamino)-2-hydroxy-3-(2-pyridyl)propionate] yielded a GI50 [1] of 4.21 ng/mL (≈ 0.00465 µM), a GI50 [2] of 0.173 ng/mL (≈ 0.000191 µM) and a GI50 [3] of 0.109 ng/mL (≈ 0.00012 µM). The solubility [4, 6] was 170 µg/mL (≈ 188 µM), the solubility [4, 7] was 1300 µg/mL (≈ 1430 µM) and the Therapeutic index (B16 melanoma BL6; B16 Melanoma BL6, po) was 5.9.
With `CC[C@H](NC(=O)OC(C)(C)C)[C@@H](O)C(=O)O[C@H]1C[C@@]2(O)[C@@H](OC(=O)c3ccccc3)[C@H]3[C@@](C)(CC[C@H]4OC[C@]43OC(C)=O)[C@@H]3O[C@H](CN4CCC4)O[C@@H]3C(=C1C)C2(C)C` [Example 37, (1S,2S,3R,4S,5R,8R,9S,10R,13S)-4-(Acetoxy)-9,10-[(1S)-2-(azetidino)ethylidenedioxy]-2-(benzoyloxy)-5,20-epoxy-1-hydroxy-tax-11-en-13-yl (2R,3S)-3-(tert-butoxycarbonylamino)-2-hydroxypentanoate] the Therapeutic index [5] was 1.4, the “Effective dose range” value [5] was 14.7 to 21.0 mg/kg and the “Solubility (μg/mL) pH 1.2” value [4, 8] was 670 μg/mL. For the same molecule, the “Solubility (μg/mL) pH 6.8” value [4, 9] was 210 μg/mL, the Therapeutic index (B16 melanoma BL6; B16 Melanoma BL6, iv) was 4.2 and the “Effective dose range” value (B16 melanoma BL6; B16 Melanoma BL6, iv) was 7.21 to 30.0 mg/kg. The Therapeutic index (B16 melanoma BL6; B16 Melanoma BL6, po) was 2.0 and the “Effective dose range” value (B16 melanoma BL6; B16 Melanoma BL6, po) was 14.7 to 30.0 mg/kg.
In the case of `CC(=O)O[C@@]12CO[C@@H]1CC[C@@]1(C)[C@@H]3O[C@H](CN4CCC4)O[C@@H]3C3=C(C)[C@@H](OC(=O)[C@H](O)[C@@H](NC(=O)OC(C)(C)C)c4ncco4)C[C@@](O)([C@@H](OC(=O)c4ccccc4)[C@@H]12)C3(C)C` [Example 41, (1S,2S,3R,4S,5R,8R,9S,10R,13S)-4-(Acetoxy)-9,10-[(1S)-2-(azetidino)ethylidenedioxy]-2-(benzoyloxy)-5,20-epoxy-1-hydroxytax-11-en-13-yl (2R,3R)-3-(tert-butoxycarbonylamino)-2-hydroxy-3-(2-oxazolyl)propionate], the Therapeutic index [5] is reported as 1.4, the “Effective dose range” value [5] is reported as 17.5 to 25.0 mg/kg and the “Solubility (μg/mL) pH 1.2” value [4, 8] is reported as 910 μg/mL. The “Solubility (μg/mL) pH 6.8” value [4, 9] was 370 μg/mL, the Therapeutic index (B16 melanoma BL6; B16 Melanoma BL6, iv) was 4.2 and the “Effective dose range” value (B16 melanoma BL6; B16 Melanoma BL6, iv) was 5.29 to 22.0 mg/kg. For the same molecule, the Therapeutic index (B16 melanoma BL6; B16 Melanoma BL6, po) was 2.9 and the “Effective dose range” value (B16 melanoma BL6; B16 Melanoma BL6, po) was 8.58 to 25.0 mg/kg.
With `CC(=O)O[C@H]1C(=O)[C@@]2(C)[C@H]([C@H](OC(=O)c3ccccc3)[C@]3(O)C[C@H](OC(=O)[C@H](O)[C@@H](NC(=O)c4ccccc4)c4ccccc4)C(C)=C1C3(C)C)[C@]1(OC(C)=O)CO[C@@H]1C[C@@H]2O` [Paclitaxel, reference compound] the GI50 [1] was greater than 100 ng/mL, the GI50 [2] was 1.71 ng/mL (≈ 0.002 µM) and the GI50 [3] was 1.87 ng/mL (≈ 0.00219 µM). It also gave a solubility ([4]; pH 1.2, simulated gastric fluid) of less than 4 µg/mL and a solubility ([4]; pH 6.8, aqueous buffer) of less than 4 µg/mL.
